What was measured:
L6-myotubes [1] = assay: Glucose uptake in differentiated L6-myotubes (Biological Example 2); type: cell-based; conditions: for glucose uptake: L6-myotubes, FIGS. 2a-2d; for Emax at 10 µM: read-out: Biological example 2 (GU)
Outline: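 Uptake was quantified as radioactivity in 0.2 M NaOH lysates after a 10 min pulse of 50 nM ^3H-2-deoxyglucose. The pulse followed two agonist exposures at 1×10^−5 M final (isoprenaline or test compound): 1 h 40 min, then 20 min in glucose-free medium after washing. L6 myotubes had been starved overnight in medium with 0.5% fatty-acid-free BSA.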

β2-adrenergic receptor [2] = biological target: T1, β2-adrenergic receptor (Rattus norvegicus, UniProt P10608); assay: Glucose uptake in the presence of the selective β2-adrenergic receptor antagonist ICI-118551 (Biological Example 1); type: cell-based; conditions: L6-myotubes; test compound 1×10^−5 M; different concentrations of ICI-118551; FIGS. 1a-1c
T1 construct: endogenous in cells; host or cells: L6 myoblasts differentiated into myotubes
T1 sequence (P10608 whole entry): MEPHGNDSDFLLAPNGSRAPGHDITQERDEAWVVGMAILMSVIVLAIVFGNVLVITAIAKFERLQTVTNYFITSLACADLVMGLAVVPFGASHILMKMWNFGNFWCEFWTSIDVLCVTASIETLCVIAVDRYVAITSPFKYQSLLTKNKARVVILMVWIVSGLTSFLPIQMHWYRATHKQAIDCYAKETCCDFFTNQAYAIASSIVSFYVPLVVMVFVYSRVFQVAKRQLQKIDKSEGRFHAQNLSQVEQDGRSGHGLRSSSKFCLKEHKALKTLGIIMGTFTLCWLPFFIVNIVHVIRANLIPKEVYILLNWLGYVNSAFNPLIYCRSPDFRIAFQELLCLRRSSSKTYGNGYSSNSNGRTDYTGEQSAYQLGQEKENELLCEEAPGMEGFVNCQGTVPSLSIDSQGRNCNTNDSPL
Experimental: L6-myoblasts were grown in Dulbecco's Modified Eagle's Medium (DMEM) containing 1 g/L glucose supplemented with 10% fetal bovine serum (FBS), 2 mM L-glutamine, 50 U/mL penicillin, 50 μg/mL streptomycin and 10 mM HEPES. Cells were plated at 1×10^5 cells per mL in 24-well plates. After reaching 90% confluence the cells were grown in medium containing 2% FBS for 7 days where upon cells differentiated into myotubes. The differentiated L6-myotubes were serum-starved overnight in medium containing 0.5% fatty-acid free BSA and stimulated with the test compound at a final concentration of 1×10^−5 M in the presence of different concentrations of the selective β2-adrenergic receptor antagonist ICI-118551. After 1 h 40 min the cells were washed with warm, glucose free medium twice and another portion of agonist was added to the glucose free medium. After another 20 min of incubation the cells were exposed to 50 nM ^3H-2-deoxyglucose for 10 min before washed in ice cold glucose free medium three times and lysed in 400 μL/well 0.2 M NaOH for 1 h at 60° C. The cell lysate was mixed with 4 ml scintillation buffer (Emulsifier Safe, Perkin Elmer) and the radioactivity was detected in a β-counter (Tri-Carb 4810TR, Perkin Elmer).

β2-adrenergic receptor [3] = biological target: T2, β2-adrenergic receptor (Homo sapiens, UniProt P07550); assay: β-arrestin 2 recruitment, Large BiT/Small BiT luciferase complementation in HEK293 cells (Biological Example 4); type: cell-based; conditions: luminescence after 31 min, compared with isoprenaline, FIGS. 3a-3c
T2 construct: expressed in transfected cells; host or cells: HEK293
T2 sequence (P07550 whole entry, species assumed): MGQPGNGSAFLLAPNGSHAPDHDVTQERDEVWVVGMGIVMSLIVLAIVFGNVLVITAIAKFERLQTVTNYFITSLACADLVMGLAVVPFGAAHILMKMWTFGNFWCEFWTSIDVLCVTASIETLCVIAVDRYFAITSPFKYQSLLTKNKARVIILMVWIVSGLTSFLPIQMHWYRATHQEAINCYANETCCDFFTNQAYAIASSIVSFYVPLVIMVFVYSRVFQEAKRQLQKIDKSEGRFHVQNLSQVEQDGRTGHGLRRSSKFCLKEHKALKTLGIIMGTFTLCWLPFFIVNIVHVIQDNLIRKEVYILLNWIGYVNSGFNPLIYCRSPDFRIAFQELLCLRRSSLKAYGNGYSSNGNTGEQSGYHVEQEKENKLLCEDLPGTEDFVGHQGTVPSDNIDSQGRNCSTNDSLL
Experimental: HEK293 cells are transfected with both the β2-adrenergic receptor attached with a Large BiT SNAP-tag protein, and with p-arrestin 2 attached to a Small BiT SNAP-tag protein. When cells are stimulated and the receptor recruits β-arrestin 2, the Small- and Large-BiT proteins merge, forming a functional luciferase enzyme, that in presence of furimazine generates light. After 31 min, the light is measured with a luminescence plate reader.

L6-myotubes [4] = assay: Measurement of intracellular cAMP levels in differentiated L6-myotubes (Biological Example 3); type: cell-based; conditions: for intracellular cAMP levels: L6-myotubes, 15 min stimulation, compared with isoprenaline, FIGS. 2a-2d; for Emax at 10 µM: 0.25 h
Outline: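 Intracellular cAMP quantified by AlphaScreen after ethanol extraction and lysis of L6 myotubes. Cells were serum-starved overnight, then exposed for 15 min to compound (final 1×10^−5 M) or isoprenaline in IBMX-containing (1 mM) HBSS buffer, pH 7.4.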

C57Bl/6 mice = assay: Body weight and lean mass in mice treated with dexamethasone (Biological Example 5); type: in vivo; conditions: male C57Bl/6 mice, daily s.c. for 3 weeks, dexamethasone sodium phosphate 10 mg/kg, Compound A 47.1 μmol/kg
Experimental: 40 eight-week-old male C57Bl/6 mice kept on standard chow diet were grouped-caged (2-3 mice per cage) at 21° C. The mice had similar body weight and body composition and were divided into four groups (n=10) and were treated daily with subcutaneous injections for 3 weeks with either dexamethasone sodium phosphate (10 mg/kg) or Compound A (47.1 μmol/kg (corresponding to dose 10 mg/kg of the free base)), or a combination of dexamethasone and Compound A. Control mice received saline. Body weight and lean mass were measured after 6, 12 and 20 days of treatment.

C57Bl/6N mice = assay: Combination of Compound C and liraglutide in mice on high-fat, high-sucrose diet (Biological Example 8); type: in vivo; conditions: diet-induced obese mice; daily s.c. for 2 weeks; liraglutide 0.1 mg/kg, Compound C 5 mg/kg; FIG. 12b
Experimental: 2.5 Months old male C57Bl/6N mice were grouped caged (4-5 mice per cage), kept at 30° C. and fed with high-fat, high-sucrose diet (45% fat) for 5 months. The mice were divided into four groups (2-3 mice per cage) according to their fasting blood glucose levels, glucose tolerance, body weight, body fat and lean mass, and treated daily for 2 weeks, subcutaneously with either vehicle, liraglutide (0.1 mg/kg), Compound C (5 mg/kg), or a mixture of liraglutide (0.1 mg/kg) and Compound C (5 mg/kg). Food intake and body weight were measured every other day; body fat and lean mass were measured weekly.

[5] = glucose uptake in differentiated L6-myotubes, compound at 10 μM, activity relative to isoproterenol at 10 μM
[6] = intracellular cAMP in differentiated L6-myotubes, compound at 10 μM, activity relative to isoproterenol at 10 μM
[7] = glucose uptake, compound at 10 μM relative to isoproterenol at 10 μM
[8] = intracellular cAMP, compound at 10 μM relative to isoproterenol at 10 μM

Which glucose uptake (L6-myotubes [1]) does the source give for CC(C)(C)NC[C@H](O)c1cncc(F)c1.O=C(O)C(O)C(O)C(=O)O [Compound B, (R)-2-(tert-Butylamino)-1-(5-fluoropyridin-3-yl)ethan-1-ol hemi-tartrate] here?
Its glucose uptake is “full glucose uptake response”.

What about the “glucose uptake promoted by the compound in the presence of ICI-118551” value (β2-adrenergic receptor [2]) of the same molecule?
The value was “inhibited in a dose-dependent manner”.

What about the “β-arrestin 2 recruitment” value (β2-adrenergic receptor [3]) of the same molecule?
Its value is “minimal p-arrestin 2 recruitment”.

What about the “intracellular cAMP levels” value (L6-myotubes [4]) of the same molecule?
Its value is “low intracellular cAMP levels”.

What does the source list for CC(C)(C)NC[C@H](O)c1cccc(F)c1.Cl [Compound A, (R)-2-(tert-Butylamino)-1-(3-fluorophenyl)ethan-1-ol hydrochloride]?
glucose uptake (L6-myotubes [1]): full glucose uptake response; glucose uptake promoted by the compound in the presence of ICI-118551 (β2-adrenergic receptor [2]): inhibited in a dose-dependent manner; β-arrestin 2 recruitment (β2-adrenergic receptor [3]): minimal p-arrestin 2 recruitment; intracellular cAMP levels (L6-myotubes [4]): low intracellular cAMP levels; body weight (C57Bl/6 mice; FIG. 4): effect is reversed; lean mass (C57Bl/6 mice; FIG. 5): effect is reversed

How did the glucose uptake (L6-myotubes [1]) turn out when CC(C)(C)NC[C@H](O)c1ccc(F)c(N)c1F.O=C(O)/C=C\C(=O)O [Compound C, (R)-1-(3-Amino-2,4-difluorophenyl)-2-(tert-butylamino)ethan-1-ol maleate] was run?
The glucose uptake was “full glucose uptake response”.

And the “change in lean mass” value (C57Bl/6N mice)?
Its value is “significantly lower as compared to administration of liraglutide alone”.

What about the “glucose uptake promoted by the compound in the presence of ICI-118551” value (β2-adrenergic receptor [2]) of the same molecule?
Its value is “inhibited in a dose-dependent manner”.

What about the “β-arrestin 2 recruitment” value (β2-adrenergic receptor [3]) of the same molecule?
The value was “minimal p-arrestin 2 recruitment”.

And the “intracellular cAMP levels” value (L6-myotubes [4])?
Its value is “low intracellular cAMP levels”.

What does the source list for CC(C)(C[C@H]1CC[C@H](NS(=O)(=O)C(F)(F)F)CC1)NC[C@H](O)c1cccc(F)c1 [Compound 458]?
Emax at 10 µM (L6-myotubes [1]; [5]): > 75%; Emax at 10 µM (L6-myotubes [4]; [6]): < 25%

CS(=O)(=O)Nc1ccc(CC23CCC([C@@H](O)c4cccc(F)c4)(CC2)N3)cc1 [Compound 474, (S)-(m-fluorophenyl)(4-{[p-(mesylamino)phenyl]methyl}-7-azabicyclo[[2.2.1]]hept-1-yl)methanol] was tested. Which Emax at 10 µM (L6-myotubes [1]; [5]) did it give?
The Emax at 10 µM was 50 to 75%.

What about the Emax at 10 µM (L6-myotubes [4]; [6]) of the same molecule?
Its Emax at 10 µM is under 25%.

Which results are given for CCCCNCC(O)c1ccc(F)c(N)c1 (stereo not shown) [Compound 44, 1-(3-amino-4-fluorophenyl)-2-(butylamino)-1-ethanol]?
Emax at 10 µM (L6-myotubes [1]; [7]): 50 to 75%; Emax at 10 µM (L6-myotubes [4]; [8]): < 25%

What does the source list for CCCCNC[C@H](O)c1ccc(F)cc1 [Compound 46, (R)-2-(butylamino)-1-(p-fluorophenyl)-1-ethanol]?
Emax at 10 µM (L6-myotubes [1]; [7]): 50 to 75%; Emax at 10 µM (L6-myotubes [4]; [8]): < 25%

What does the source list for CCOC(=O)CO[C@H]1CC[C@H](C(C)(C)NC[C@H](O)c2cccc(F)c2)CC1 [Compound 398, ethyl[[(1R,4r)-4-{1-[(R)-2-(m-fluorophenyl)-2-hydroxyethylamino]-1-methylethyl}cyclohexyloxy]]acetate]?
Emax at 10 µM (L6-myotubes [1]; [5]): > 75%; Emax at 10 µM (L6-myotubes [4]; [6]): < 25%

For CCC[C@H]1CCC[C@H]([C@@H](O)c2cccc(O)c2)N1 [Compound 155], which Emax at 10 µM (L6-myotubes [1]; [7]) is on record?
The Emax at 10 µM was under 25%.

What about the Emax at 10 µM (L6-myotubes [4]; [8]) of the same molecule?
Its Emax at 10 µM is under 25%.

CCC(C)NCC(O)c1ccc(O)cc1 (stereo not shown) [Compound 5, 2-(sec-butylamino)-1-(p-hydroxyphenyl)-1-ethanol] was tested. Which Emax at 10 µM (L6-myotubes [1]; [7]) did it give?
The Emax at 10 µM was 50 to 75%.

And the Emax at 10 µM (L6-myotubes [4]; [8])?
The Emax at 10 µM was under 25%.

With O[C@@H](c1cncc(F)c1)C12CCC(CCCc3ccccc3)(CC1)N2 [Compound 531, (S)-(5-fluoro-3-pyridyl){4-(3-phenylpropyl)-7-azabicyclo[[2.2.1]]hept-1-yl}methanol] as the molecule, how does the Emax at 10 µM (L6-myotubes [1]; [5]) read?
Its Emax at 10 µM is 50 to 75%.

What about the Emax at 10 µM (L6-myotubes [4]; [6]) of the same molecule?
The Emax at 10 µM was under 25%.

Which results are given for O[C@H](c1cncc(F)c1)[C@H]1CC[C@@H](Cc2ccc(Cl)cc2)N1 [Compound 404, (R)-{(2R,5S)-5-[(p-chlorophenyl)methyl]-2-pyrrolidinyl}(5-fluoro-3-pyridyl)methanol]?
Emax at 10 µM (L6-myotubes [1]; [5]): > 75%; Emax at 10 µM (L6-myotubes [4]; [6]): < 25%

What does the source list for CCC[C@@H]1CC[C@H](C(O)c2cccc(O)c2)N1 (stereo in doubt) [Compound 57, m-{(R)-[(2R,5R)-5-propyl-2-pyrrolidinyl] hydroxymethyl}phenol]?
Biological example 2 (GU) (L6-myotubes [1]; [7]): +++ (If a compound at 10 μM shows activity of more than 75% of that of isoproterenol at 10 μM, the activity is denoted with +++); Biological example 3 (CAMP) (L6-myotubes [4]; [8]): ++ (if it is between 75 and 50% it is denoted with ++)

Which results are given for O[C@@H](CNCC[C@H]1CC[C@H](O)CC1)c1cncc(F)c1 [Compound 294, (R)-1-(5-fluoro-3-pyridyl)-2-{2-[(1r,4R)-4-hydroxycyclohexyl]ethylamino}-1-ethanol]?
Emax at 10 µM (L6-myotubes [1]; [5]): 25 to 50%; Emax at 10 µM (L6-myotubes [4]; [6]): < 25%

What does the source list for CCC[C@H]1CCC[C@H]([C@H](O)c2ccccc2F)N1 [Compound 93, (R)-[(2R,6S)-6-propyl-2-piperidyl](o-fluorophenyl)methanol]?
Emax at 10 µM (L6-myotubes [1]; [7]): 25 to 50%; Emax at 10 µM (L6-myotubes [4]; [8]): < 25%

How did the Emax at 10 µM (L6-myotubes [1]; [5]) turn out when CO[C@H]1CC[C@H](CCNC[C@H](O)c2cccc(F)c2)CC1 [Compound 224, (R)-1-(m-fluorophenyl)-2-{2-[(1r,4R)-4-methoxycyclohexyl]ethylamino}-1-ethanol] was run?
Its Emax at 10 µM is 25 to 50%.

What about the Emax at 10 µM (L6-myotubes [4]; [6]) of the same molecule?
The Emax at 10 µM was under 25%.

How did the Emax at 10 µM (L6-myotubes [1]; [5]) turn out when CC(=O)N[C@H]1CC[C@H](C(C)(C)NC[C@H](O)c2cccc(F)c2)CC1 [Compound 386, N-[(1R,4r)-4-{1-[(R)-2-(m-fluorophenyl)-2-hydroxyethylamino]-1-methylethyl}cyclohexyl] acetamide] was run?
The Emax at 10 µM was over 75%.

And the Emax at 10 µM (L6-myotubes [4]; [6])?
The Emax at 10 µM was under 25%.

From US20260216294A1, “BETA 2-ADRENERGIC RECEPTOR AGONISTS FOR TREATMENT OR PREVENTION OF MUSCLE WASTING” (ATROGI AB, priority 2023, published 2026)
